Assay results: paper PMC4974736, “Corynebacterium glutamicum possesses β-N-acetylglucosaminidase” (BMC Microbiology, 2016)

How the values were obtained:
Type in all cases: biochemical
NagZ = biological target: T1, NagZ (Bacillus subtilis, UniProt P40406); test: p-nitrophenol release at […] nm; settings: 100 mM phosphate pH 7.0; cell extract of overexpressing C. glutamicum; turnover only
T1 construct: codon-optimized synthetic gene in pEKEx3, overexpressed in C. glutamicum; cell extract, not purified
T1 sequence (P40406 17-642): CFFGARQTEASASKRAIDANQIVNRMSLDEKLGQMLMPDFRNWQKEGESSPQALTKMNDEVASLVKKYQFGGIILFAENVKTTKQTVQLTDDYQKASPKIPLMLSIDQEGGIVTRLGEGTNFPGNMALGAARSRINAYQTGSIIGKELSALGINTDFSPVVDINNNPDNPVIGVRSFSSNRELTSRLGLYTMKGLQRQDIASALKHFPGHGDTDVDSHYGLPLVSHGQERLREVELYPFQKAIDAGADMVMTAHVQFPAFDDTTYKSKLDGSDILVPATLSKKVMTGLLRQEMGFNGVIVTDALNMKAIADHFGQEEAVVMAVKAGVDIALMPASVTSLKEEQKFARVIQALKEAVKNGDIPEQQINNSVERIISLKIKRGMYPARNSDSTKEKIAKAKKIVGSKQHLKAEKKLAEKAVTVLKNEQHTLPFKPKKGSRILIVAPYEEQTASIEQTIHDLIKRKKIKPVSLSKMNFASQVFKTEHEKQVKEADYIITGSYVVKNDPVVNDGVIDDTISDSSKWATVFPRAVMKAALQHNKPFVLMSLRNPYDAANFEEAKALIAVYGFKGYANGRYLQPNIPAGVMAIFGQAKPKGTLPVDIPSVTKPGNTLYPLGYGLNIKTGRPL

[1] = biological target: T2, NagA2 fused to the C. glutamicum PhoD signal peptide (PhoD-nagA2) (Corynebacterium glutamicum, UniProt Q8NLT5); test: p-nitrophenol release at […] nm, Eadie-Hofstee plot; settings: 100 mM phosphate pH 7.0; culture supernatant of overexpressing C. glutamicum
T2 construct: gene Cgl2852; native signal peptide replaced by TAT signal peptide of PhoD (cg2485), expected to be cleaved on export; pEKEx3 in C. glutamicum; culture supernatant, not purified
T2 sequence (Q8NLT5 entry or part of it): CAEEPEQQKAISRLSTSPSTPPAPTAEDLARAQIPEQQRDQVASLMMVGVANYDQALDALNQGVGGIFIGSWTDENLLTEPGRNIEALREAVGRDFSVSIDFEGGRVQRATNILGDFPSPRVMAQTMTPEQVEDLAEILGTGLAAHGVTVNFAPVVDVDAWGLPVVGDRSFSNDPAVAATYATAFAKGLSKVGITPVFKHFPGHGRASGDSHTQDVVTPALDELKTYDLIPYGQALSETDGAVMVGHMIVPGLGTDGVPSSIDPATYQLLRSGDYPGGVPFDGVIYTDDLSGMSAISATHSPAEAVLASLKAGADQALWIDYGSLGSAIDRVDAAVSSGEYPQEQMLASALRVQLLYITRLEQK

ChiB = biological target: T3, ChiB (Serratia marcescens, UniProt P11797); test: p-nitrophenol release at […] nm; settings: 100 mM phosphate pH 7.0; cell extract and supernatant of overexpressing C. glutamicum; turnover only
T3 construct: native form or fused to TAT signal peptide of Cg0955 (SP0955); pEKEx3 in C. glutamicum; cell extract and supernatant, not purified
T3 sequence (P11797 1-499 limits assumed): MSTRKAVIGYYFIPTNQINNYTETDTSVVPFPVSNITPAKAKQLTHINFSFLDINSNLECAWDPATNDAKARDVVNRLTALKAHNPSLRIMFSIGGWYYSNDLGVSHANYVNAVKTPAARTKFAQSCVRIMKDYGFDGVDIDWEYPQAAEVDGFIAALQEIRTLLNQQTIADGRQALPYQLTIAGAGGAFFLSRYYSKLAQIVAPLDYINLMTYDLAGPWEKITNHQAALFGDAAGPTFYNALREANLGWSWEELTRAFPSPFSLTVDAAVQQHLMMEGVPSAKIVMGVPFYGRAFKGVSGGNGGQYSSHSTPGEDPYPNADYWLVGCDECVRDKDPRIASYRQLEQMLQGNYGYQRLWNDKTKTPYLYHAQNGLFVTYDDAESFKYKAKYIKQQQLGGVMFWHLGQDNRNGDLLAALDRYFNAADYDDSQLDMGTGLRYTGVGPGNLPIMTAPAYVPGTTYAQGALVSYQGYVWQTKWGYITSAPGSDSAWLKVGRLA

[2] = biological target: T4, NagA2 lacking its own signal peptide (SP-less-nagA2) (Corynebacterium glutamicum, UniProt Q8NLT5); test: p-nitrophenol release at […] nm, Eadie-Hofstee plot; settings: 100 mM phosphate pH 7.0; cell extract fraction of overexpressing C. glutamicum
T4 construct: gene Cgl2852; predicted native signal peptide removed; overexpressed from pEKEx3 in C. glutamicum; cell extract, not purified
T4 sequence (Q8NLT5 entry or part of it): as the sequence (Q8NLT5 entry or part of it) above

`CC(=O)N[C@H]1[C@H](Oc2ccc([N+](=O)[O-])cc2)O[C@H](CO)[C@@H](O)[C@@H]1O` [4-Nitrophenyl N-acetyl-β-D-glucosaminide] was tested, and the “p-nitrophenol release at 405 nm” value (NagZ) was “NagZ produced in C. glutamicum led to an intracellular specific activity of N-acetylglucosaminidase”.

With `CC(=O)N[C@H]1[C@H](Oc2ccc([N+](=O)[O-])cc2)O[C@H](CO)[C@@H](O[C@@H]2O[C@H](CO)[C@@H](O)[C@H](O)[C@H]2NC(C)=O)[C@@H]1O` [4-nitrophenyl N,N’-diacetyl-β-D-chitobioside] the Km [1] was 270 ± 66 µM, the “p-nitrophenol release at 405 nm” value (ChiB) was “chitinase activity was quantified by measuring the hydrolysis of p-nitrophenol from 4-Nitrophenyl N,N’-diacetyl-β-D-chitobioside” and the Km [2] was 266 ± 37 µM.
